Assay results as given in US20230322761A1, “DEGRADATION OF BRUTON'S TYROSINE KINASE (BTK) BY CONJUGATION OF BTK INHIBITORS WITH E3 LIGASE LIGAND AND METHODS OF USE” (BEIGENE, LTD., priority 2020, published 2023).

Target: T1, BTK (Homo sapiens, UniProt Q06187)
T1 construct: endogenous in cells; host or cells: TMD-8 cells
Assay: BTK degradation in TMD-8 cells, HTRF assay after 6 h treatment
Type: cell-based
Conditions: for DC50: IC50 (DC50) of BTK degradation; for Dmax: TMD8, maximum percentage of inhibition (degradation)
How it was run: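 Remaining BTK was quantified by HTRF in lysates of TMD-8 cells after 6 h exposure to an 8-point, 6-fold compound series (500× stocks in DMSO starting at 1 mM; 0.2% DMSO). Lysis 30 min, antibodies overnight at room temperature, ratio read at 665/620 nm; DC50 fitted with a four-parameter logistic equation.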

T1 sequence (Q06187 whole entry): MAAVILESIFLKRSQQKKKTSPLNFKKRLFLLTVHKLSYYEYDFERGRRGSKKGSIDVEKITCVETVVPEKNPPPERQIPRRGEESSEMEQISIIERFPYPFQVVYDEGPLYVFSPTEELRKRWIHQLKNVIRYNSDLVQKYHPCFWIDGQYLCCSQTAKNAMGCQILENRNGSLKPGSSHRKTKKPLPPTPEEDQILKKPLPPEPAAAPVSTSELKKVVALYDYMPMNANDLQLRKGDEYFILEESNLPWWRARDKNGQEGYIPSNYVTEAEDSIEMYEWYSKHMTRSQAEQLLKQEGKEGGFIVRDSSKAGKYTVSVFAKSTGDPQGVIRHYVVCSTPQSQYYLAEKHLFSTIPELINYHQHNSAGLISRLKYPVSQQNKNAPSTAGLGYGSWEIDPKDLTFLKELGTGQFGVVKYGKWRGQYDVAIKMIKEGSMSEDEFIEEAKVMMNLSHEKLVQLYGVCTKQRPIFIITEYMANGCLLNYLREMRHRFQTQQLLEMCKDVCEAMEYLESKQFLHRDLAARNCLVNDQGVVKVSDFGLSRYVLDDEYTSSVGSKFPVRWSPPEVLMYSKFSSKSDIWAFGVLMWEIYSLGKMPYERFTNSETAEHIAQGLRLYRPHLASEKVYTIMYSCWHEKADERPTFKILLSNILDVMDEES

| Compound | DC50 [nM] | Dmax [%] |
| --- | --- | --- |
| Cc1cc(-c2n[nH]c3ncc(-c4ccc(N5CCN(CC6CCN(c7ccc(N8CCC(=O)NC8=O)cc7)CC6)CC5)cc4)cc23)c(F)cc1[C@@H](C)NC(=O)c1nc(C(C)(C)C)no1 [Example 46, (R)-3-(tert-butyl)-N-(1-(4-(5-(4-(4-((1-(4-(2,4-dioxotetrahydropyrimidin-1(2H)-yl)phenyl)piperidin-4-yl)methyl)piperazin-1-yl)phenyl)-1H-pyrazolo[3,4-b]pyridin-3-yl)-5-fluoro-2-methylphenyl)ethyl)-1,2,4-oxadiazole-5-carboxamide] | 5.13 |  |
| Cc1cc(CCN2CCN(c3ccc(-c4cnc5[nH]nc(-c6ccc([C@@H](C)NC(=O)c7noc(C(C)(C)C)n7)c(C)c6)c5c4)cc3)CC2)ccc1C1CCC(=O)NC1=O (stereo partly drawn) [Example 40, 5-(tert-butyl)-N-((1R)-1-(4-(5-(4-(4-(4-(2,6-dioxopiperidin-3-yl)-3-methylphenethyl)piperazin-1-yl)phenyl)-1H-pyrazolo[3,4-b]pyridin-3-yl)-2-methylphenyl)ethyl)-1,2,4-oxadiazole-3-carboxamide] | 7.32 |  |
| Cc1cc(-c2n[nH]c3ncc(-c4ccc(CCN5CCC(c6ccc(C7CCC(=O)NC7=O)cc6)CC5)cc4)cc23)ccc1CNC(=O)c1noc(C(C)(C)C)n1 (centres unmarked) [Example 8, 3-(tert-butyl)-N-(4-(5-(4-(2-(4-(4-(2,6-dioxopiperidin-3-yl)phenyl)piperidin-1-yl)ethyl)phenyl)-1H-pyrazolol[3,4-b]pyridin-3-yl)-2-methylbenzyl)-1,2,4-oxadiazole-5-carboxamide] | 1.4 | 101 |
| Cc1cc(-c2n[nH]c3ncc(-c4ccc(C5CCN(CCc6ccc(C7CCC(=O)NC7=O)c7c6CCCC7)CC5)cc4)cc23)ccc1CNC(=O)c1nc(C(C)(C)C)no1 (centres unmarked) [Example 26, 3-(tert-butyl)-N-(4-(5-(4-(1-(2-(4-(2,6-dioxopiperidin-3-yl)-5,6,7,8-tetrahydronaphthalen-1-yl)ethyl)piperidin-4-yl)phenyl)-1H-pyrazolo[3,4-b]pyridin-3-yl)-2-methylbenzyl)-1,2,4-oxadiazole-5-carboxamide] | 28.9 | 94.3 |
| COc1cc(OCCCN2CCN(c3ccc(-c4cnc5[nH]nc(-c6ccc([C@@H](C)NC(=O)c7noc(C(C)(C)C)n7)c(C)c6)c5c4)cc3)CC2)ccc1NC1CCC(=O)NC1=O (stereo partly drawn) [Example 130, 5-(tert-butyl)-N-((1R)-1-(4-(5-(4-(4-(3-(4-((2,6-dioxopiperidin-3-yl)amino)-3-methoxyphenoxy)propyl)piperazin-1-yl)phenyl)-1H-pyrazolo[3,4-b]pyridin-3-yl)-2-methylphenyl)ethyl)-1,2,4-oxadiazole-3-carboxamide] | 5.28 |  |
| Cc1cc(-c2n[nH]c3ncc(-c4ccc(N5CCN(CC6CCN(c7ccc(N8CCC(=O)NC8=O)cc7)CC6)CC5)cc4)cc23)ccc1[C@@H](C)NC(=O)c1noc(C2(C)CC2)n1 [Example 109, (R)—N-(1-(4-(5-(4-(4-((1-(4-(2,4-dioxotetrahydropyrimidin-1(2H)-yl)phenyl)piperidin-4-yl)methyl)piperazin-1-yl)phenyl)-1H-pyrazolo[3,4-b]pyridin-3-yl)-2-methylphenyl)ethyl)-5-(1-methylcyclopropyl)-1,2,4-oxadiazole-3-carboxamide] | 13.3 |  |
| Cc1cc(-c2n[nH]c3ncc(-c4ccc(N5CCN(CC6CCN(c7ccc(N8CCC(=O)NC8=O)c(C)c7)CC6)CC5)cc4)cc23)ccc1[C@@H](C)NC(=O)c1noc(C(C)(C)C)n1 [Example 39, (R)-5-(tert-butyl)-N-(1-(4-(5-(4-(4-((1-(4-(2,4-dioxotetrahydropyrimidin-1(2H)-yl)-3-methylphenyl)piperidin-4-yl)methyl)piperazin-1-yl)phenyl)-1H-pyrazolo[3,4-b]pyridin-3-yl)-2-methylphenyl)ethyl)-1,2,4-oxadiazole-3-carboxamide] | 2.6 |  |
| Cc1cc(-c2n[nH]c3ncc(-c4ccc(N5CCN(CCc6ccc(C7CCC(=O)NC7=O)c(C)n6)CC5)cc4)cc23)ccc1[C@@H](C)NC(=O)c1noc(C(C)(C)C)n1 (stereo partly drawn) [Example 155, 5-(tert-butyl)-N-((1R)-1-(4-(5-(4-(4-(2-(5-(2,6-dioxopiperidin-3-yl)-6-methylpyridin-2-yl)ethyl)piperazin-1-yl)phenyl)-1H-pyrazolo[3,4-b]pyridin-3-yl)-2-methylphenyl)ethyl)-1,2,4-oxadiazole-3-carboxamide] | 2.92 |  |
| Cc1cc(-c2n[nH]c3ncc(-c4ccc(C5CCN(CCc6ccc(N7CCC(=O)NC7=O)cc6)CC5)cc4)cc23)ccc1CNC(=O)c1noc(C(C)(C)C)n1 [Example 6, 5-(tert-butyl)-N-(4-(5-(4-(1-(4-(2,4-dioxotetrahydropyrimidin-1(2H)-yl)phenethyl)piperidin-4-yl)phenyl)-1H-pyrazolo[3,4-b]pyridin-3-yl)-2-methylbenzyl)-1,2,4-oxadiazole-3-carboxamide] | 2.94 | 97 |
| Cc1cc(-c2n[nH]c3ncc(-c4ccc(N5CCN(CC6CCN(c7ccc(N8CCC(=O)NC8=O)cc7)CC6)CC5)cc4)cc23)ccc1CNC(=O)c1cn(C(C)(C)C)nn1 [Example 31, 1-(tert-butyl)-N-(4-(5-(4-(4-((1-(4-(2,4-dioxotetrahydropyrimidin-1(2H)-yl)phenyl)piperidin-4-yl)methyl)piperazin-1-yl)phenyl)-1H-pyrazolo[3,4-b]pyridin-3-yl)-2-methylbenzyl)-1H-1,2,3-triazole-4-carboxamide] | 21.8 | 97.4 |
| Cc1cc(-c2n[nH]c3ncc(-c4ccc(N5CCN(CCOc6cccc7c6C(=O)N([C@@H]6CCC(=O)NC6=O)C7)CC5)cc4)cc23)ccc1[C@@H](C)NC(=O)c1nc(C(C)(C)C)no1 [Example 226, 3-(tert-butyl)-N—((R)-1-(4-(5-(4-(4-(2-((2-((R)-2,6-dioxopiperidin-3-yl)-3-oxoisoindolin-4-yl)oxy)ethyl)piperazin-1-yl)phenyl)-1H-pyrazolo[3,4-b]pyridin-3-yl)-2-methylphenyl)ethyl)-1,2,4-oxadiazole-5-carboxamide] | 3.04 |  |
| Cc1cc(-c2n[nH]c3ncc(-c4ccc(N5CCN(CC6CCN(c7ccc(N8CCC(=O)NC8=O)cc7)CC6)CC5)cc4)cc23)ccc1[C@@H](C)NC(=O)c1nc(C2(C)CC2)no1 [Example 213, (R)—N-(1-(4-(5-(4-(4-((1-(4-(2,4-dioxotetrahydropyrimidin-1(2H)-yl)phenyl)piperidin-4-yl)methyl)piperazin-1-yl)phenyl)-1H-pyrazolo[3,4-b]pyridin-3-yl)-2-methylphenyl)ethyl)-3-(1-methylcyclopropyl)-1,2,4-oxadiazole-5-carboxamide] | 5.04 |  |
| Cc1cc(-c2n[nH]c3ncc(-c4ccc(N5CCN(CC6CCN(c7ccc(N8CCC(=O)NC8=O)cc7)CC6)CC5)cc4)cc23)ccc1CNC(=O)c1cnn(C(C)(C)C)c1 [Example 32, 1-(tert-butyl)-N-(4-(5-(4-(4-((1-(4-(2,4-dioxotetrahydropyrimidin-1(2H)-yl)phenyl)piperidin-4-yl)methyl)piperazin-1-yl)phenyl)-1H-pyrazolo[3,4-b]pyridin-3-yl)-2-methylbenzyl)-1H-pyrazole-4-carboxamide] | 2.55 | 93.6 |
| Cc1cc(-c2n[nH]c3ncc(-c4ccc(N5CCN(CCCOc6ccc(C7CCC(=O)NC7=O)c(F)c6)CC5)cc4)cc23)ccc1[C@@H](C)NC(=O)c1noc(C(C)(C)C)n1 (stereo partly drawn) [Example 86, 5-(tert-butyl)-N-((1R)-1-(4-(5-(4-(4-(3-(4-(2,6-dioxopiperidin-3-yl)-3-fluorophenoxy)propyl)piperazin-1-yl)phenyl)-1H-pyrazolo[3,4-b]pyridin-3-yl)-2-methylphenyl)ethyl)-1,2,4-oxadiazole-3-carboxamide] | 3.95 |  |
| Cc1cc(-c2n[nH]c3ncc(-c4ccc(N5CCN(CC6CCN(c7ccc(C8CCC(=O)NC8=O)cc7)C6)CC5)cc4)cc23)ccc1[C@@H](C)NC(=O)c1noc(C(C)(C)C)n1 (stereo partly drawn) [Example 191, 5-(tert-butyl)-N-((1R)-1-(4-(5-(4-(4-((1-(4-(2,6-dioxopiperidin-3-yl)phenyl)pyrrolidin-3-yl)methyl)piperazin-1-yl)phenyl)-1H-pyrazolo[3,4-b]pyridin-3-yl)-2-methylphenyl)ethyl)-1,2,4-oxadiazole-3-carboxamide] | 7.34 |  |
